Numbered stars: 1 amine (or outer) side, 2 acyl side, 3 side chain; on linkers, the order of the positions; unused ones are H or OH. Bridge positions count the residues as written; N and C are the ends. Square brackets hold non-standard residues; d marks the D form. Peptide text beside a SMILES is read from it. * marks the point of attachment. ξ: configuration not given here. Phe(3-CONH2) = NC(=O)c1cccc(C[C@H](N)C(=O)O)c1; Phe(4-COOH) = N[C@@H](Cc1ccc(C(=O)O)cc1)C(=O)O; Bip = N[C@@H](Cc1ccc(-c2ccccc2)cc1)C(=O)O; X50 = C[C@@H](C(=O)[*:2])N(CCCCCN)[*:1]; Phe(3-Me) = Cc1cccc(C[C@H](N)C(=O)O)c1; Phe(2-F) = N[C@@H](Cc1ccccc1F)C(=O)O; Gly(cPent) = N[C@H](C(=O)O)C1CCCC1; Val(3-OH) = CC(C)(O)[C@H](N)C(=O)O; 4Pal = N[C@@H](Cc1ccncc1)C(=O)O; Cha = N[C@@H](CC1CCCCC1)C(=O)O; Cit = NC(=O)NCCC[C@H](N)C(=O)O; Ile(3ξ) = CCC(C)[C@H](N)C(=O)O; Thr(3ξ) = CC(O)[C@H](N)C(=O)O; Ala(CN) = N#CC[C@H](N)C(=O)O; Carboxymethyl = O=C(O)C*; NMeA = CN[C@@H](C)C(=O)O; Nle = CCCC[C@H](N)C(=O)O; Orn = NCCC[C@H](N)C(=O)O; Dab = NCC[C@H](N)C(=O)O; ξC = NC(CS)C(=O)O
target: T1, PE-labeled human PD-L1-Ig binding to Jurkat cell line over-expressing human PD-1 (Jurkat-PD-1) (Homo sapiens, UniProt Q15116); assay: Jurkat-PD-1 Cell Binding High-Content Screening Assay (CBA): Method 1; settings: Jurkat-hPD-1 cells, PE-labeled PD-L1-Ig 20 nM final; read-out: Jurkat HPDL1 PD1 IC50 (uM) (Method 1)
T1 construct: expressed in transfected cells; host or cells: Jurkat
T1 sequence (Q15116 25-288): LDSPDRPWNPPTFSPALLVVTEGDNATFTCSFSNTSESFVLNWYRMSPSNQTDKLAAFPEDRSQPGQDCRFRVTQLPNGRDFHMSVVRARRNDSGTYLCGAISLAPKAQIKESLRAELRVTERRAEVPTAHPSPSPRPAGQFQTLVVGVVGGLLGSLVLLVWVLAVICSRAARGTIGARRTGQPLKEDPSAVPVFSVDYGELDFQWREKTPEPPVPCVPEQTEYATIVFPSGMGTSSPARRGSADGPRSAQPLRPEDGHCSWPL

SMILES	IC50
CCCC[C@@H]1NC(=O)[C@H](CCCNC(=N)N)NC(=O)[C@@H](CC(C)C)NC(=O)[C@H](C)N(C)C(=O)[C@H](C(C)C)NC(=O)[C@H](Cc2ccc(-c3ccccc3)cc2)NC(=O)[C@H](C(C)C)NC(=O)[C@H](Cc2c[nH]c3ccccc23)NC(=O)[C@H](CC(=O)O)NC(=O)[C@H](Cc2ccc(O)cc2)NC(=O)[C@H](Cc2ccccc2)NC(=O)CSC[C@@H](C(=O)N[C@@H](C)C(N)=O)NC(=O)[C@H]([C@@H](C)O)NC(=O)[C@H](C(C)C)NC1=O [Compound 1502] ({CH2CO}-FYDWV[Bip]V[NMeA][dL]R[Nle]VTCA-NH2; thioether N-14)	0.1 µM
CCC(C)[C@@H]1NC(=O)[C@H](Cc2ccc(-c3ccccc3)cc2)NC(=O)[C@H](CC(C)C)NC(=O)[C@H](Cc2c[nH]c3ccccc23)NC(=O)[C@H](CC(=O)O)NC(=O)[C@H](Cc2ccc(OCC(=O)O)cc2)NC(=O)[C@H](C(C)O)NC(=O)CSC[C@@H](C(=O)N[C@@H](CC(N)=O)C(=O)O)NC(=O)[C@H](C2CCCC2)NC(=O)[C@H](C(C)C)NC(=O)[C@H](CC(C)C)NC(=O)[C@H](CCN)NC(=O)[C@@H](CC(C)C)NC(=O)[C@H](C)N(C)C1=O (stereo partly drawn) [Compound 2227] ({CH2CO}-[Thr(3ξ)]Y(Carboxymethyl)DWL[Bip][Ile(3ξ)][NMeA][dL][Dab]LV[Gly(cPent)]CN-OH; thioether N-14)	0.81 µM
CC(C)C[C@@H]1NC(=O)[C@H](CCCN)NC(=O)[C@@H](CC(C)C)NC(=O)[C@H](C)N(C)C(=O)[C@H](CCCNC(=N)N)NC(=O)[C@H](Cc2ccc(-c3ccccc3)cc2)NC(=O)[C@H](C(C)C)NC(=O)[C@H](Cc2c[nH]c3ccccc23)NC(=O)[C@H](CC(=O)O)NC(=O)[C@H](Cc2ccc(C(=O)O)cc2)NC(=O)[C@H](Cc2cnc[nH]2)NC(=O)CSC[C@@H](C(=O)N[C@@H](C)C(N)=O)NC(=O)[C@H]([C@@H](C)O)NC(=O)[C@H](C(C)C)NC1=O [Compound 1149] ({CH2CO}-H[Phe(4-COOH)]DWV[Bip]R[NMeA][dL][Orn]LVTCA-NH2; thioether N-14)	0.07 µM
CC(C)C[C@@H]1NC(=O)[C@H](CCN)NC(=O)[C@@H](CC(C)C)NC(=O)[C@H](C)N(C)C(=O)[C@H](CCCNC(N)=O)NC(=O)[C@H](Cc2ccc(-c3ccccc3)cc2)NC(=O)[C@H](C(C)C)NC(=O)[C@H](Cc2c[nH]c3ccccc23)NC(=O)[C@H](CC(=O)O)NC(=O)[C@H](Cc2ccc(O)cc2)NC(=O)[C@H](CCC(N)=O)NC(=O)CSC[C@@H](C(=O)N[C@@H](C)C(N)=O)NC(=O)[C@H]([C@@H](C)O)NC(=O)[C@H](C(C)C)NC1=O [Compound 1357] ({CH2CO}-QYDWV[Bip][Cit][NMeA][dL][Dab]LVTCA-NH2; thioether N-14)	0.06 µM
CC(C)C[C@H]1NC(=O)[C@H](C)N(C)C(=O)[C@H](C(C)C)NC(=O)[C@H](Cc2ccc(-c3ccccc3)cc2)NC(=O)[C@H](C(C)C)NC(=O)[C@H](Cc2c[nH]c3ccccc23)NC(=O)[C@H](CC(=O)O)NC(=O)[C@H](Cc2ccc(O)cc2)NC(=O)[C@H](Cc2ccccc2)NC(=O)CSC[C@@H](C(=O)N[C@@H](C)C(N)=O)NC(=O)[C@H]([C@@H](C)O)NC(=O)[C@H](C(C)C)NC(=O)[C@H](CC2CCCCC2)NC(=O)[C@H](CCCNC(=N)N)NC1=O [Compound 1487] ({CH2CO}-FYDWV[Bip]V[NMeA][dL]R[Cha]VTCA-NH2; thioether N-14)	0.32 µM
CC(C)C[C@@H]1NC(=O)[C@H](CCN)NC(=O)[C@@H](CC(C)C)NC(=O)[C@H](C)N(CCCCCN)C(=O)[C@H](CCCNC(=N)N)NC(=O)[C@H](Cc2ccc(-c3ccccc3)cc2)NC(=O)[C@H](C(C)C)NC(=O)[C@H](Cc2c[nH]c3ccccc23)NC(=O)[C@H](CC(=O)O)NC(=O)[C@H](Cc2ccc(O)cc2)NC(=O)[C@H](CC(N)=O)NC(=O)CSC[C@@H](C(=O)N[C@@H](C)C(N)=O)NC(=O)[C@H]([C@@H](C)O)NC(=O)[C@H](C(C)C)NC1=O [Compound 1257] ({CH2CO}-NYDWV[Bip]R[X50][dL][Dab]LVTCA-NH2; thioether N-14)	0.13 µM
CC(C)C[C@@H]1NC(=O)[C@H](CCN)NC(=O)[C@@H](CC(C)C)NC(=O)[C@H](C)N(C)C(=O)[C@H](Cc2c[nH]c3ccccc23)NC(=O)[C@H](Cc2ccc(-c3ccccc3)cc2)NC(=O)[C@H](C(C)C)NC(=O)[C@H](Cc2c[nH]c3ccccc23)NC(=O)[C@H](CC(=O)O)NC(=O)[C@H](Cc2ccc(O)cc2)NC(=O)[C@H](CC(N)=O)NC(=O)CSC[C@@H](C(=O)N[C@@H](C)C(N)=O)NC(=O)[C@H]([C@@H](C)O)NC(=O)[C@H](C(C)C)NC1=O [Compound 1263] ({CH2CO}-NYDWV[Bip]W[NMeA][dL][Dab]LVTCA-NH2; thioether N-14)	0.89 µM

These reach a lower IC50. Values come first.

IC50	SMILES
0.02 µM	CC(C)C[C@@H]1NC(=O)[C@H](Cc2c[nH]c3ccccc23)NC(=O)[C@H](CC(=O)O)NC(=O)[C@H](Cc2ccccc2F)NC(=O)[C@H](Cc2ccccc2)NC(=O)CSC[C@@H](C(=O)N[C@@H](C)C(N)=O)NC(=O)[C@H](CO)NC(=O)[C@H](C(C)C)NC(=O)[C@H](CC(C)C)NC(=O)[C@H](CC(N)=O)NC(=O)[C@@H](C)NC(=O)[C@H](C)N(C)C(=O)[C@H](C(C)C)NC(=O)[C@H](Cc2ccc(-c3ccccc3)cc2)NC1=O [Compound 1735] ({CH2CO}-F[Phe(2-F)]DWL[Bip]V[NMeA][dA]NLVSCA-NH2; thioether N-14)
0.04 µM	Cc1cccc(C[C@@H]2NC(=O)[C@H](CC(=O)O)NC(=O)[C@H](Cc3ccc(OCC(=O)O)cc3)NC(=O)[C@H](CCN)NC(=O)CSC[C@@H](C(=O)N[C@@H](CO)C(N)=O)NC(=O)[C@H](CO)NC(=O)[C@H](C(C)(C)O)NC(=O)[C@H](CC3CCCCC3)NC(=O)[C@H](CCN)NC(=O)[C@@H](CC(C)C)NC(=O)[C@H](C)N(C)C(=O)[C@H](Cc3ccc(C(=O)O)cc3)NC(=O)[C@H](Cc3ccc(-c4ccccc4)cc3)NC(=O)[C@H](Cc3cccc(C(N)=O)c3)NC2=O)c1 [Compound 2178] ({CH2CO}-[Dab]Y(Carboxymethyl)D[Phe(3-Me)][Phe(3-CONH2)][Bip][Phe(4-COOH)][NMeA][dL][Dab][Cha][Val(3-OH)]SCS-NH2; thioether N-14)
0.02 µM	CC(C)C[C@@H]1NC(=O)[C@H](Cc2c[nH]c3ccccc23)NC(=O)[C@H](CC(=O)O)NC(=O)[C@H](Cc2ccc(C(=O)O)cc2)NC(=O)[C@H](Cc2ccc(OCC(=O)O)cc2)NC(=O)CSC[C@@H](C(=O)N[C@@H](CCN)C(N)=O)NC(=O)[C@H](CCC(=O)O)NC(=O)[C@H](C(C)(C)O)NC(=O)[C@H](CC2CCCCC2)NC(=O)[C@H](CCN)NC(=O)[C@@H](CC(C)C)NC(=O)[C@H](C)N(C)C(=O)[C@H](C(C)(C)O)NC(=O)[C@H](Cc2ccc(-c3ccccc3)cc2)NC1=O [Compound 1717] ({CH2CO}-Y(Carboxymethyl)[Phe(4-COOH)]DWL[Bip][Val(3-OH)][NMeA][dL][Dab][Cha][Val(3-OH)]EC[Dab]-NH2; thioether N-14)
0.01 µM	Cc1cccc(C[C@@H]2NC(=O)[C@H](CC(=O)O)NC(=O)[C@H](Cc3ccc(C(=O)O)cc3)NC(=O)[C@H](Cc3ccncc3)NC(=O)CSC[C@@H](C(=O)N[C@@H](C)C(N)=O)NC(=O)[C@H]([C@@H](C)O)NC(=O)[C@H](C(C)C)NC(=O)[C@H](CC(C)C)NC(=O)[C@H](CCN)NC(=O)[C@@H](CC(C)C)NC(=O)[C@H](C)N(C)C(=O)[C@H](CCCNC(N)=O)NC(=O)[C@H](Cc3ccc(-c4ccccc4)cc3)NC(=O)[C@H](C(C)C)NC2=O)c1 [Compound 1431] ({CH2CO}-[4Pal][Phe(4-COOH)]D[Phe(3-Me)]V[Bip][Cit][NMeA][dL][Dab]LVTCA-NH2; thioether N-14)
0.01 µM	CCC(C)[C@@H]1NC(=O)[C@H](Cc2ccc(-c3ccccc3)cc2)NC(=O)[C@H](C(C)C)NC(=O)[C@H](Cc2c[nH]c3ccccc23)NC(=O)[C@H](CC(=O)O)NC(=O)[C@H](Cc2ccc(O)cc2)NC(=O)[C@H](CC#N)NC(=O)CSCC(C(=O)NCC(=O)O)NC(=O)[C@H](C(C)O)NC(=O)[C@H](C(C)C)NC(=O)[C@H](CC2CCCCC2)NC(=O)[C@H](CCN)NC(=O)[C@@H](CC(C)C)NC(=O)[C@H](C)N(C)C1=O (stereo partly drawn) [Compound 2218] ({CH2CO}-[Ala(CN)]YDWV[Bip][Ile(3ξ)][NMeA][dL][Dab][Cha]V[Thr(3ξ)][ξC]G-OH; thioether N-14)
0.04 µM	CCC(C)[C@@H]1NC(=O)[C@H](Cc2ccc(-c3ccccc3)cc2)NC(=O)[C@H](CC2CCCCC2)NC(=O)[C@H](Cc2c[nH]c3ccccc23)NC(=O)[C@H](CC(=O)O)NC(=O)[C@H](Cc2ccc(OCC(=O)O)cc2)NC(=O)[C@H](C(C)O)NC(=O)CSC[C@@H](C(=O)N[C@@H](CC(N)=O)C(=O)O)NC(=O)[C@H](CO)NC(=O)[C@H](C(C)C)NC(=O)[C@H](CC(C)C)NC(=O)[C@H](CCN)NC(=O)[C@@H](CC(C)C)NC(=O)[C@H](C)N(C)C1=O (stereo partly drawn) [Compound 2223] ({CH2CO}-[Thr(3ξ)]Y(Carboxymethyl)DW[Cha][Bip][Ile(3ξ)][NMeA][dL][Dab]LVSCN-OH; thioether N-14)
0.04 µM	CC[C@H](C)[C@@H]1NC(=O)[C@H](Cc2ccc(-c3ccccc3)cc2)NC(=O)[C@H](C(C)C)NC(=O)[C@H](Cc2c[nH]c3ccccc23)NC(=O)[C@H](CC(=O)O)NC(=O)[C@H](Cc2ccc(O)cc2)NC(=O)[C@H](CC(C)C)NC(=O)CSC[C@@H](C(=O)N[C@@H](C)C(N)=O)NC(=O)[C@H]([C@@H](C)O)NC(=O)[C@H](C(C)C)NC(=O)[C@H](CC(C)C)NC(=O)[C@H](CCN)NC(=O)[C@@H](CC(C)C)NC(=O)[C@H](C)N(C)C1=O [Compound 1392] ({CH2CO}-LYDWV[Bip]I[NMeA][dL][Dab]LVTCA-NH2; thioether N-14)
0.01 µM	CC(C)C[C@@H]1NC(=O)[C@H](Cc2c[nH]c3ccccc23)NC(=O)[C@H](CC(=O)O)NC(=O)[C@H](Cc2ccncc2)NC(=O)[C@H](Cc2ccc(OCC(=O)O)cc2)NC(=O)CSC[C@@H](C(=O)N[C@@H](CC(N)=O)C(N)=O)NC(=O)[C@H](CO)NC(=O)[C@H](C(C)C)NC(=O)[C@H](CC2CCCCC2)NC(=O)[C@H](CCN)NC(=O)[C@@H](CC(C)C)NC(=O)[C@H](C)N(C)C(=O)[C@H](C(C)C)NC(=O)[C@H](Cc2ccc(-c3ccccc3)cc2)NC1=O [Compound 1901] ({CH2CO}-Y(Carboxymethyl)[4Pal]DWL[Bip]V[NMeA][dL][Dab][Cha]VSCN-NH2; thioether N-14)
